According to publication PMC10470313, “Developing a peptide to disrupt cohesin head domain interactions” (iScience, 2023):
Where no end group is shown, it is not given here.

Assays:
Smc3 head domain = molecular target: T1, Smc3 head domain (Saccharomyces cerevisiae, UniProt P47037); test: Field-effect biosensing (FEB Agile R100) binding of peptide to Smc3 head domain; settings: 500 nM peptide immobilized on graphene chip, Hill fit or kon/koff
T1 construct: C′ terminal (amino acids 1001-1230); linker […]; made in house; host or cells: E. coli BL21
T1 sequence (P47037 with tags, fused parts or gaps): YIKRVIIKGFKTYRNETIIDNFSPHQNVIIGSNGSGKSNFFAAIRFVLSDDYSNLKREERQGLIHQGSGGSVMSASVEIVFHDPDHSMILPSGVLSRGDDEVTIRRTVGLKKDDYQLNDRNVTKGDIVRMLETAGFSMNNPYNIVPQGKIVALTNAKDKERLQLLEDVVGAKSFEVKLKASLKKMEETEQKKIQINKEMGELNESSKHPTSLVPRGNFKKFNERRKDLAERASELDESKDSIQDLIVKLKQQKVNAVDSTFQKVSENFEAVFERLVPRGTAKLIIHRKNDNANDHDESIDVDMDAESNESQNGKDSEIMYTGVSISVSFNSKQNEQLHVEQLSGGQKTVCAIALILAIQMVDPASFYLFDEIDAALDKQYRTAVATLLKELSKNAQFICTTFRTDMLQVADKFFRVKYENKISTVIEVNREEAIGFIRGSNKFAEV
Method: Accordingly, we explored the ability of CIP3 to bind Smc3 in-vitro. We synthesized CIP3-TAT and purified it (Figures S2A and S2B. Purification of CIP3-TAT and Smc3 head domain, related to Figure 3), and the kinetic binding of the peptide to a purified Smc3 head domain (Figures S2C and S2D. Purification of CIP3-TAT and Smc3 head domain, related to Figure 3) was explored by FEB Agile R100 (Figures 3C and 3D). The binding kinetics is determined by measuring the current of the chip that is changed when the analyzed molecules form a complex. The peptide was immobilized on the sensor chip, and the analyte, purified Smc3 head domain, was applied in solution to the chip. The changes in the current were monitored as increasing concentrations of analyte were applied to the chip. […]
The binding kinetics of cohesin-inhibiting peptide 3 (CIP3) to Smc3 were measured by field-effect biosensing (FEB) Agile R100 label-free binding assay (Cardea), following their standard protocol, and as we have done previously,.[65]^,[66]^,[67] […] Next, PBS was aspirated, and the changes in the baseline current were monitored in real-time, using 20 μM, 50 μM, 100 μM, 200 μM, 500 μΜ, 1000 μM, 1500 μM, 2000 μM, and 4000 μM of purified Smc3 head domain. Kd values were calculated using DataLINE 2.0 software by applying either a Hill equation fit or using kon and koff values at a single concentration. […]

yeast cells, G2/M = test: Chromosome condensation by two-photon microscopy; assay type: cell-based; settings: nuclear-integrated density divided by circumference, at least 40 nuclei
Method: Chromosome condensation depends on cohesin. However, this cohesin function can be separated from sister chromatid cohesion activity.[45]^,[46] We tested this possibility by analyzing chromatin in G2/M cells via two-photon microscopy.[47]^,[48] Cells were grown and treated as before.
The method is described in.[47]^,[48] Briefly, cells were grown to mid-log phase. Two-photon microscopy of live cells was performed with the LSM780 (Zeiss) inverted confocal microscope, using the Chameleon Vision II (Coherent) multiphoton laser (3 W, pulse width 140 fs at peak, repetition rate 80 MHz, tuning range 680-1080 nm, excitation 768 nm/image collection 512 nm). Slides were visualized with X63 N/A 1.4 objective lenses. Cells in G2/M were selected based on their morphology. Images were analyzed using Image J processing software. The condensation level is represented by the division of the nuclear-integrated density by its circumference. The significance between conditions was determined by using Student's t-test.

Sequence: KRFKDMEYLSGGEKTGGYGRKKRRQRRR [CIP3-TAT]
- Kd (Smc3 head domain; with ATP (10 mM), Smc3 incubated with ATP before measuring, Smc3 head domain 20-4000 μM (0.02–4 mM)): 544.2 ± 0.06 nM
- Kd (Smc3 head domain; without ATP, Smc3 head domain 20-4000 μM (0.02–4 mM) in PBS): 53.86 ± 0.03 nM
- chromatin condensation (yeast cells, G2/M): chromatin was decondensed in comparison with the untreated cells
